Tests used:
[1] = Half life in presence of glutathione; assay type: ADME; settings: solution containing glutathione
[2] = Half life in presence of sodium dimethyldithiocarbamate; assay type: ADME; settings: solution containing sodium dimethyldithiocarbamate

COC1=CC(=O)c2c(c(COP(N)(=O)N(CCBr)CCBr)cn2C)C1=O (stereo not drawn)
half-life [1]: 35 min | half-life [2]: 14 min

COC1=CC(=O)c2c(cc(COP(N)(=O)N3CCOCC3)n2C)C1=O (stereo not drawn)
half-life [1]: 716 min | half-life [2]: 659 min

COC1=CC(=O)c2c(cc(COP(N)(=O)N(CCBr)CCBr)n2C)C1=O (stereo not drawn)
half-life [1]: 653 min | half-life [2]: 26 min

COC1=CC(=O)c2c(c(COP(N)(=O)N3CCOCC3)cn2C)C1=O (stereo not drawn)
half-life [1]: 83 min | half-life [2]: 34 min

Source: ChEMBL document CHEMBL1145013, “Studies on the mechanisms of activation of indolequinone phosphoramidate prodrugs” (J Med Chem, 2003)
